# Marks after values point to notes of the source that are not given here.
# Key:
# [1] = test system: mice infected with C. rodentium; test: C. rodentium colitis; type: in vivo; conditions: for Colon wt (% Total Body wt) / Histology Score / Body wt (% Total Body wt): 10 days; for Body wt (% Total Body wt): 0.1% BEC or 2.5% DFMO; for Inhibition of mortality vs water alone: 1% L-Arg in drinking water
# Source text: C. rodentium colitis: Of the two existing mouse models (Gobert A P et al., 2004; Cheng Y. et al., 2003), the C. rodentium model was selected because it produces a Th1-predominant mucosal inflammation that has histologic changes similar to human IBD (Higgins L M et al., 1999). In this model, mice are infected by oral gavage with C. rodentium (Gobert A P et al., 2004), a gram negative pathogenic bacterium that is the rodent equivalent of enteropathogenic E. coli that causes diarrhea in humans.
# Since arginase I and iNOS were both abundantly expressed in the colitis tissues and L-Arg was completely metabolized, we investigated the effect of administration of 1% L-Arg in the drinking water. In wild type (WT) mice, C. rodentium colitis induced a high level of mortality that began on day 9 post-infection (FIG. 31A). In WT animals treated with L-Arg, mortality was inhibited by 42% and 62% compared to mice receiving water alone, after 12 and 14 days of infection, respectively (FIG. 31A). By Cox regression analysis, WT mice treated with L-Arg had only a 31% hazard of death compared with mice receiving water alone (p<0.0009). In iNOS^−/− mice, no deaths were observed, with or without L-Arg (FIG. 31A). […] Note that the weight loss of WT mice is underestimated, since only the weights of animals still alive could be included. […] There was an additive effect of iNOS deletion and L-Arg administration, with a 68% decrease in colon weight. Neither iNOS deletion nor L-Arg treatment affected colon weight in uninfected control mice. Importantly, these changes were closely paralleled by changes in colon histology (FIG. 32).
# In uninfected control mice, BEC or DFMO had no effect (Table I). […] In fact, experiments had to be terminated early at 10 days post-infection, because of deaths and severe disease at this point.
# mice with DSS colitis = test: Dextran sulfate sodium (DSS) colitis; type: in vivo, mouse
# Source text: This model was selected because it has become commonly accepted as a mouse model of colitis and is quite practical to employ, since it simply involves adding DSS to the drinking water (Moteau O. et al., 2000, Williams K L et al. 2001, Andres P G et al., 2000, Mahler M. et al., 1998, Tesser T G et al., 1998).
# BV2 microglial cells = test system: BV2 microglial cells
# Method: For suppression of inflammation profiling, each peptide analog was tested at a final concentration of 0.1, […], 1, 3, 5, 10 and 25 μM in an LPS induced BV2 microglial cell release of NO and/or TNFα. […] The modification was a biotin label on the apoE peptide (biotin-[…]-amide) which allows detection with ^125I-streptavidin (ISA, Amersham).
# In overview, BV-2 cells are plated in 96 well plates in complete media and then the media is replaced the next day with serum free media or reduced serum (1%) media. […] Each concentration of peptide (standard initial concentrations are 0.1, 0.5, 1, 3, 10 and 25 μM) is added to at least 6 wells of cells (e.g. 6 wells get 0.1 μM peptide, 6 wells get 0.5 μM peptide, etc.) and data are averaged from all 6 wells. […] (2001). Cell viability is also measured with an MTT assay (Laskowitz et al. 2001).
# [2] = test system: C57BL/6J mice with MOG-induced EAE; test: MOG-induced experimental autoimmune encephalomyelitis (EAE)
# Method: EAE was induced in mice following the method of Feinstein et al. (Feinstein, Galea, et al. 2002) 1) two s.c. injections, one on each flank of the hind legs with 300 μg MOG35-55 peptide in 0.1 ml PBS emulsified in an equal volume of CFA containing 5 mg/ml of Mycobacterium tuberculosis H37RA (Difco, St. Louis, Mo.) were given on Day 0.2) Pertussis toxin (200 ng per mouse in 0.1 ml PBS) was given i.p. immediately and 48 h after first MOG injection. 3) a booster immunization with an identical emulsion, route of administration and location was given on Day 7.
# Following the encephalitogenic challenge, mice were monitored daily and neurological impairment was evaluated by clinical score (C.S.) as follows: 0, no clinical signs of EAE; 1, limp tail; 2, flaccid tail and abnormal gait (ataxia and/or paresis of hind limbs); 3, severe hind limb paresis; 4, complete paralysis with hind body; and 5, moribund or death.
# Mice were anesthetized, bled, and perfused with 25 ml PBS and 25 ml 4% paraformaldehyde in buffered PBS. Brains and spinal cords were dissected out from 3 mice with a clinical score of 0 and another 3 mice with a clinical score of 4 on day 30 post-immunization. Tissues were post-fixed in 4% paraformaldehyde for another 24 h and then stored in 1×PBS with 0.1% sodium azide. Fixed tissues were embedded in paraffin and 5 μm thick sections were cut from brain, the brain stem and three different levels of spinal cord (cervical, thoracic and lumbar). Sections were stained with hematoxylin/eosin for evidence of inflammation and Luxol fast blue (for demyelination). The severity of inflammation was evaluated using the following criteria: 0, no inflammation; 1, cellular infiltrates only in the perivascular areas and meninges; 2, mild cellular infiltrates only in parenchyma (1-10/section); 3, moderate cellular infiltrates in parenchyma (11-100/section); 4, marked cellular infiltrates in parenchyma (>100 section).
# In total, 10 doses of peptides were given.
# peritoneal macrophages = test: Peritoneal macrophage production of NO, TNFα and IL-6 induced by MOG or LPS/IFN-γ; type: cell-based, mouse
# Method: For this purpose, three mice with clinical scores of 0 and three with clinical scores of 4 at 30 dpi (day post-immunization) were used for preparation of peritoneal macrophage cultures. Macrophages were collected after peritoneal lavage with 3 ml heparin (10 U/ml)-containing PBS and then seeded to 96-well microplates at a density of 1×10^5 cells/well in Dulbecco's MEM containing 10% fetal bovine serum, 2 mM L-glutamine serum, 1% HEPES and 100 U/ml penicillin and 100 μg/ml streptomycin, 37° C. in a humidified incubator with 5% CO2. 24 h later, the serum-containing medium was removed and cells were washed once with serum-free medium. To examine the differentiated response of macrophage to immune stimulators, macrophages obtained from mice with clinical scores of 0 or 4 were exposed to serial concentrations of IFN-γ/LPS or MOG35-55 peptide. […] Media were collected at 45 h or 72 h, and analyzed by ELISA for […] and IL-6 or for nitric oxide (NO) as detailed below.
# As the stable end product of nitric oxide release, nitrite levels in conditioned media were determined by injecting 50 μl media sample into a Sievers 280 NOA analyzer (Boulder, Colo., USA). Total protein (μg/well) was measured using the BCA method (Pierce, Rockford, Ill., USA) according to manufacturer's instructions with BSA as standard. BCA values were measured using a Molecular Devices Thermomax Microplate Reader (Menlo Park, Calif., USA) at OD562. Nitric oxide levels ere expressed as μM NO2—/mg protein.
# For cytokine assays, supernatants were collected 45 h after […]/LPS or MOG treatments and quantitative ELISAs using selected pairs of monoclonal antibodies (as recommended by the manufacturer Biosource) were performed to quantify the cytokines, TNF-α and IL-6. For TNF-α ELISA, 96-well ELISA plates were pre-coated with rabbit anti-mouse polyclonal to TNF-α as capture antibodies for 18 h at 2-8° C. and then blocked for 2 h at room temperature. The wells were incubated with samples or mouse TNF-α standards. Following incubation for 2 h at room temperature, the wells were washed, after which hamster anti-mouse TNF-α biotinylated secondary antibody and horseradish peroxidase conjugate were added. Tetramethylbenzidine (TMB) solution was then added, and peroxidase-catalyzed color change was stopped by acidification with 2 NH2SO4. The plates were scanned at wavelength 450 nm and the absorbance were measured. The results are expressed as the mean concentration (pg/ml) ±SEM.
# For IL-6 ELISA, rat anti-mouse monoclonal to IL-6 was used as capture antibody, and biotinylated rat anti-mouse monoclonal to IL-6 as detection antibody. The rest of procedure is identical to that of TNF-α ELISA.
compound,measurement,setting,value
"N[C@@H](CSCCB(O)O)C(=O)O [BEC, S-(2-boronoethyl)-L-cysteine]",Colon wt (% Total Body wt),"[1]; WT mice, C. rodentium","1.25 ± 0.07^b,d % Total Body wt"
same,Histology Score,"[1]; WT mice, C. rodentium","9.25 ± 0.69^b,d"
same,Body wt (% Total Body wt),"[1]; WT mice, C. rodentium","82.4 ± 5.2^a,c % Total Body wt"
same,Colon wt (% Total Body wt),"[1]; WT mice, PBS (uninfected)",0.42 ± 0.04 % Total Body wt
same,Histology Score,"[1]; WT mice, PBS (uninfected)",0.67 ± 0.17
same,Body wt (% Total Body wt),"[1]; WT mice, PBS (uninfected)",110.1 ± 2.2 % Total Body wt
same,Colon histologic injury score,"[1]; iNOS−/− C. rodentium-infected mice + BEC, n=8, p<0.01",6.44±0.98
same,Colon weight,"[1]; iNOS−/− C. rodentium-infected mice + BEC, p<0.05",0.92±0.20 % of total body weight
same,Effect in uninfected control mice,[1]; in the drinking water,had no effect
same,Survival of C. rodentium-infected mice,[1]; in the drinking water,significant loss of survival
same,Clinical and histologic parameters of DSS colitis,"mice with DSS colitis; WT and iNOS−/− mice, data not shown",exacerbation of clinical and histologic parameters of colitis
N=C(N)NCCC[C@H](N)C(=O)O [L-Arg],Inhibition of mortality vs water alone,"[1]; WT mice, 12 days of infection",42%
same,Inhibition of mortality vs water alone,"[1]; WT mice, 14 days of infection",62%
same,Hazard of death compared with water alone (Cox regression),"[1]; WT mice, p<0.0009",31%
same,Decrease in colon weight,[1]; infected WT mice,28%
same,Weight loss,[1]; infected WT mice,reduced weight loss
same,Increase in colonic ODC activity,[1]; infected WT mice treated with L-Arg,40 fold
same,Increase in colonic polyamines,[1]; infected WT mice with L-Arg treatment,2.7±0.2 fold
same,Decrease in colon weight,[1]; infected iNOS−/− mice given L-Arg,68%
same,"IFN-γ, TNF-α and IL-1 mRNA in colitis tissues",[1]; real-time PCR,significant attenuation of these increases
same,Clinical parameters of DSS colitis,mice with DSS colitis; L-Arg (1%),reduction in clinical parameters of colitis
same,Colonic polyamine levels in DSS colitis,"mice with DSS colitis; mouse, in vivo",enhanced polyamine levels
"LLRKRLKRLHSALRVRL (Reverse of COG133) [Reverse Pep., ApoE reverse peptide, scrambled control of COG133]",Suppression of NO and/or TNFα release from LPS treated BV2 cells,BV2 microglial cells,lacked bioactivity
same,Clinical severity of EAE,"[2]; 1 mg/kg i.v., 10 doses",did not improve the behavioral symptoms of EAE
same,Incidence,"[2]; 1 mg/kg i.v., 10 doses",10/10
same,Mortality,"[2]; 1 mg/kg i.v., 10 doses",3/10
same,Day of onset,"[2]; 1 mg/kg i.v., 10 doses Day 6-22, mean ± SEM",17.3 ± 1.12
same,Mortality,"[2]; 1 mg/kg i.v., 10 doses, listed as reverse peptide",5 of 15
same,Mean maximum score,"[2]; clinical score 0-5, mean ± SEM",3.9 ± 0.31
same,"LPS/IFN-γ-induced production of NO, TNFα and IL-6","peritoneal macrophages; COG133 at 1 μM rather than at 5 μM, P<0.05",failed to inhibit this production
same,MOG-induced production of NO and TNFα,"peritoneal macrophages; macrophages from C.S. 4 mice, 72 h after MOG 20 μg/ml",did not display such an inhibitory effect

# From US20090042783A1, “APO E ANALOGS AND METHODS FOR THEIR USE” (priority 2004, published 2009)
